From PubChem BioAssay (NCI)
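Assay format: 96-well plates, 48-hour exposure. Definition used: TGI = concentration required for complete inhibition of growth.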

Columns and labels:
Experiment in all cases: NCI tumour cell line growth inhibition, 48 h
CCRF-CEM leukemia = tested on: CCRF-CEM leukemia
SR leukemia = tested on: SR leukemia
BT-549 breast = tested on: BT-549 breast
HCT-15 colon = tested on: HCT-15 colon
SW-620 colon = tested on: SW-620 colon
HOP-62 NSCLC = tested on: HOP-62 NSCLC
HOP-92 NSCLC = tested on: HOP-92 NSCLC
SK-MEL-5 melanoma = tested on: SK-MEL-5 melanoma
UO-31 renal = tested on: UO-31 renal
MOLT-4 leukemia = tested on: MOLT-4 leukemia
SNB-19 CNS = tested on: SNB-19 CNS
RXF 393 renal = tested on: RXF 393 renal
HT29 colon = tested on: HT29 colon
MDA-MB-231 breast = tested on: MDA-MB-231 breast
EKVX NSCLC = tested on: EKVX NSCLC
SN12C renal = tested on: SN12C renal
A549 NSCLC = tested on: A549 NSCLC
A498 renal = tested on: A498 renal
KM12 colon = tested on: KM12 colon
NCI-H226 lung = tested on: NCI-H226 lung
MALME-3M melanoma = tested on: MALME-3M melanoma
NCI-H460 lung = tested on: NCI-H460 lung
UACC-257 melanoma = tested on: UACC-257 melanoma
SK-MEL-2 melanoma = tested on: SK-MEL-2 melanoma
LOX IMVI melanoma = tested on: LOX IMVI melanoma
SF-295 CNS = tested on: SF-295 CNS
NCI-H522 lung = tested on: NCI-H522 lung
T-47D breast = tested on: T-47D breast
OVCAR-8 ovarian = tested on: OVCAR-8 ovarian
K-562 leukemia = tested on: K-562 leukemia
U251 CNS = tested on: U251 CNS
TK-10 renal = tested on: TK-10 renal
NCI/ADR-RES ovarian = tested on: NCI/ADR-RES ovarian
HS 578T breast = tested on: HS 578T breast
UACC-62 melanoma = tested on: UACC-62 melanoma
PC-3 prostate = tested on: PC-3 prostate
SK-MEL-28 melanoma = tested on: SK-MEL-28 melanoma
COLO 205 colon = tested on: COLO 205 colon
HCT-116 colon = tested on: HCT-116 colon
SK-OV-3 ovarian = tested on: SK-OV-3 ovarian
SNB-75 CNS = tested on: SNB-75 CNS
DU-145 prostate = tested on: DU-145 prostate
SF-268 CNS = tested on: SF-268 CNS
ACHN renal = tested on: ACHN renal
M14 melanoma = tested on: M14 melanoma
HCC-2998 colon = tested on: HCC-2998 colon
OVCAR-4 ovarian = tested on: OVCAR-4 ovarian
CAKI-1 renal = tested on: CAKI-1 renal
RPMI-8226 leukemia = tested on: RPMI-8226 leukemia
786-0 renal = tested on: 786-0 renal
NCI-H23 lung = tested on: NCI-H23 lung
HL-60(TB) leukemia = tested on: HL-60(TB) leukemia
MDA-N = tested on: MDA-N
OVCAR-5 ovarian = tested on: OVCAR-5 ovarian
MCF7 breast = tested on: MCF7 breast
MDA-MB-435 = tested on: MDA-MB-435
IGROV1 ovarian = tested on: IGROV1 ovarian

Measured: TGI

O=C(/N=C1/OC(CN2CCOCC2)CN1C(=O)Nc1ccccc1)Nc1ccccc1 (configuration not stated)
> 100 µM: CCRF-CEM leukemia | SR leukemia | BT-549 breast | HCT-15 colon | SW-620 colon | HOP-62 NSCLC | HOP-92 NSCLC | SK-MEL-5 melanoma | UO-31 renal | MOLT-4 leukemia | SNB-19 CNS | RXF 393 renal | HT29 colon | MDA-MB-231 breast | EKVX NSCLC | SN12C renal | A549 NSCLC | A498 renal | KM12 colon | NCI-H226 lung | MALME-3M melanoma | NCI-H460 lung | UACC-257 melanoma | SK-MEL-2 melanoma | LOX IMVI melanoma | SF-295 CNS | NCI-H522 lung | T-47D breast | OVCAR-8 ovarian | K-562 leukemia | U251 CNS | TK-10 renal | NCI/ADR-RES ovarian | HS 578T breast | UACC-62 melanoma | PC-3 prostate | SK-MEL-28 melanoma | COLO 205 colon | HCT-116 colon | SK-OV-3 ovarian | SNB-75 CNS | DU-145 prostate | SF-268 CNS | ACHN renal | M14 melanoma | HCC-2998 colon | OVCAR-4 ovarian | CAKI-1 renal | RPMI-8226 leukemia | 786-0 renal | NCI-H23 lung | HL-60(TB) leukemia | MDA-N | OVCAR-5 ovarian | MCF7 breast | MDA-MB-435 | IGROV1 ovarian
